Measurements taken from patent US20260125375A1 (Pfizer Inc., priority 2022, published 2026).

Key:
CBL-B (residues 36-427) = biological target: T1, CBL-B (residues 36-427) (Homo sapiens, UniProt Q13191); assay: Ligand Displacement Assay (LDA), HTRF competitive binding against BODIPY-labeled fluorescent tracer, CBL-B; settings: geometric mean of the number of tests, read-out: CBL-B Ki (nM) GMean
T1 construct: Purified CBL-B (residues 36-427) and C-CBL (residues 46-435) proteins from baculovirus-infected insect cells; made in house; host or cells: baculovirus-infected insect cells
How it was run: (§1)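 Insect-cell (baculovirus) protein, N-term AviTag biotinylated via BirA, captured by SA-Tb; BODIPY tracer, KD measured per protein. 3-fold serial dilutions, duplicate, […], 2% DMSO final. Ki (nM) = geomean of runs.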

WT CBL-B (36-427) = biological target: T2, WT CBL-B (36-427) (Homo sapiens, UniProt Q13191); assay: Surface Plasmon Resonance (SPR) assay, binding affinity and kinetics, CBL-B; settings: SPR at 10° C., biotinylated WT CBL-B (36-427) on streptavidin chip; geometric mean; read-out: CBL-B SPR Kd (nM) GMean
T2 construct: N-terminal biotinylated WT CBL-B (36-427) and C-CBL (46-435) were captured on a streptavidin (SA) coated sensor chip
How it was run: (§2)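 SPR kinetics at 10° C, run either single-cycle (0.001–1 μM, 3-fold, 6 points, 120 s on, >5400 s off) or multi-cycle (10 points, 2-fold, top 10 or 100 μM, 90 s on). Proteins were N-biotinylated CBL-B (36-427) and C-CBL (46-435) on SA surfaces, in pH 7.2 HEPES, 2% DMSO.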

C-CBL (46-435) = biological target: T3, C-CBL (46-435) (Homo sapiens, UniProt P22681); assay: Surface Plasmon Resonance (SPR) assay, binding affinity and kinetics, C-CBL; settings: SPR at 10° C., biotinylated C-CBL (46-435) on streptavidin chip; geometric mean; read-out: C-CBL SPR Kd (nM) GMean
T3 construct: N-terminal biotinylated WT CBL-B (36-427) and C-CBL (46-435) were captured on a streptavidin (SA) coated sensor chip
T3 sequence (P22681 46-435): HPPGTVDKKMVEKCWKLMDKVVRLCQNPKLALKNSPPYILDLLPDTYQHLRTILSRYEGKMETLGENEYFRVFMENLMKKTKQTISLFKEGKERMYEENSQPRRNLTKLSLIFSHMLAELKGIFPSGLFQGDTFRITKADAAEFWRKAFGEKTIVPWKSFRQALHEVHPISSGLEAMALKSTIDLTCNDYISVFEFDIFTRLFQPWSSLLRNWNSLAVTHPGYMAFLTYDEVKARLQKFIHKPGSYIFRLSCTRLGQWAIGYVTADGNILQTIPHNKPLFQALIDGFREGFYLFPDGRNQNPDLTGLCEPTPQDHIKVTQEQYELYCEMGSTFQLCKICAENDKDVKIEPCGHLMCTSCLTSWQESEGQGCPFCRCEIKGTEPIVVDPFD
How it was run: as §2

C-CBL (residues 46-435) = biological target: T4, C-CBL (residues 46-435) (Homo sapiens, UniProt P22681); assay: Ligand Displacement Assay (LDA), HTRF competitive binding against BODIPY-labeled fluorescent tracer, C-CBL; settings: geometric mean of the number of tests, read-out: C-CBL Ki (nM) GMean
T4 construct: Purified CBL-B (residues 36-427) and C-CBL (residues 46-435) proteins from baculovirus-infected insect cells; made in house; host or cells: baculovirus-infected insect cells
T4 sequence (P22681 46-435): T3 sequence (P22681 46-435)
How it was run: as §1

Cn1cnnc1CC1(c2cccc(-c3n[nH]c4c(CNC5CCC5)nc(C(F)(F)F)cc34)c2)COC1 [Example C57, N-{[3-(3-{3-[(4-methyl-4H-1,2,4-triazol-3-yl)methyl]oxetan-3-yl}phenyl)-5-(trifluoromethyl)-1H-pyrazolo[3,4-c]pyridin-7-yl]methyl}cyclobutanamine]
Ki (CBL-B (residues 36-427)): 18.9 nM | Kd (WT CBL-B (36-427)): 3.3 nM | Kd (C-CBL (46-435)): 116 nM | Ki (C-CBL (residues 46-435)): 96.3 nM

C[C@H]1CN(Cc2nc(C(F)(F)F)cc3c(-c4cccc(C5(Cc6nncn6C)COC5)c4)n[nH]c23)CCO1 [Example C58, 7-{[(2S)-2-methylmorpholin-4-yl]methyl}-3-(3-{3-[(4-methyl-4H-1,2,4-triazol-3-yl)methyl]oxetan-3-yl}phenyl)-5-(trifluoromethyl)-1H-pyrazolo[3,4-c]pyridine]
Ki (CBL-B (residues 36-427)): 14.8 nM | Kd (WT CBL-B (36-427)): 5.8 nM | Kd (C-CBL (46-435)): 54.1 nM | Ki (C-CBL (residues 46-435)): 82.4 nM

Cn1cnnc1CC1(c2cccc(-c3n[nH]c4c(CN[C@@H]5CCOC5)nc(C(F)(F)F)cc34)c2)COC1 [Example C59]
Ki (CBL-B (residues 36-427)): 45.2 nM | Kd (WT CBL-B (36-427)): 16.8 nM | Kd (C-CBL (46-435)): 230 nM | Ki (C-CBL (residues 46-435)): 171 nM

Cn1cnnc1CC1(c2cccc(-c3n[nH]c4c(CN[C@@H]5CCC(F)(F)C5)nc(C(F)(F)F)cc34)c2)COC1 [Example C60, (1R)-3,3-difluoro-N-{[3-(3-{3-[(4-methyl-4H-1,2,4-triazol-3-yl)methyl]oxetan-3-yl}phenyl)-5-(trifluoromethyl)-1H-pyrazolo[3,4-c]pyridin-7-yl]methyl}cyclopentan-1-amine]
Ki (CBL-B (residues 36-427)): 10.7 nM | Kd (WT CBL-B (36-427)): 5.1 nM | Kd (C-CBL (46-435)): 41.7 nM | Ki (C-CBL (residues 46-435)): 57.5 nM

Cn1cnnc1CC1(c2cccc(-c3n[nH]c4c(CN5CCC5)nc(C(F)(F)F)cc34)c2)COC1 [Example C61, 7-[(azetidin-1-yl)methyl]-3-(3-{3-[(4-methyl-4H-1,2,4-triazol-3-yl)methyl]oxetan-3-yl}phenyl)-5-(trifluoromethyl)-1H-pyrazolo[3,4-c]pyridine]
Ki (CBL-B (residues 36-427)): 53 nM | Kd (WT CBL-B (36-427)): 12.8 nM | Kd (C-CBL (46-435)): 99.8 nM | Ki (C-CBL (residues 46-435)): 232 nM

Cn1cnnc1CC1(c2cccc(-c3n[nH]c4c(CN5CCCC5)nc(C(F)(F)F)cc34)c2)COC1 [Example C62, 3-(3-{3-[(4-methyl-4H-1,2,4-triazol-3-yl)methyl]oxetan-3-yl}phenyl)-7-[(pyrrolidin-1-yl)methyl]-5-(trifluoromethyl)-1H-pyrazolo[3,4-c]pyridine]
Ki (CBL-B (residues 36-427)): 34.3 nM | Kd (WT CBL-B (36-427)): 8.6 nM | Kd (C-CBL (46-435)): 111 nM | Ki (C-CBL (residues 46-435)): 162 nM

Cn1cnnc1CC1(c2cccc(-c3n[nH]c4c(CN5CCOCC5)nc(C(F)(F)F)cc34)c2)COC1 [Example C63, 3-(3-{3-[(4-methyl-4H-1,2,4-triazol-3-yl)methyl]oxetan-3-yl}phenyl)-7-[(morpholin-4-yl)methyl]-5-(trifluoromethyl)-1H-pyrazolo[3,4-c]pyridine]
Ki (CBL-B (residues 36-427)): 27 nM | Kd (WT CBL-B (36-427)): 8 nM | Kd (C-CBL (46-435)): 91.8 nM | Ki (C-CBL (residues 46-435)): 120 nM

Cn1cnnc1CC1(c2cccc(-c3n[nH]c4c(CN5CCNCC5)nc(C(F)(F)F)cc34)c2)COC1 [Example C64, 3-(3-{3-[(4-methyl-4H-1,2,4-triazol-3-yl)methyl]oxetan-3-yl}phenyl)-7-[(piperazin-1-yl)methyl]-5-(trifluoromethyl)-1H-pyrazolo[3,4-c]pyridine]
Ki (CBL-B (residues 36-427)): 31.2 nM | Kd (WT CBL-B (36-427)): 3 nM | Kd (C-CBL (46-435)): 65.2 nM | Ki (C-CBL (residues 46-435)): 117 nM

Cn1cnnc1CC1(c2cccc(-c3n[nH]c4c(CN5CC(F)C5)nc(C(F)(F)F)cc34)c2)COC1 [Example C65, 7-[(3-fluoroazetidin-1-yl)methyl]-3-(3-{3-[(4-methyl-4H-1,2,4-triazol-3-yl)methyl]oxetan-3-yl}phenyl)-5-(trifluoromethyl)-1H-pyrazolo[3,4-c]pyridine]
Ki (CBL-B (residues 36-427)): 21.8 nM | Kd (WT CBL-B (36-427)): 4.9 nM | Kd (C-CBL (46-435)): 127 nM | Ki (C-CBL (residues 46-435)): 126 nM

Cn1cnnc1CC1(c2cccc(-c3n[nH]c4c(CN5C[C@@H](F)[C@H](F)C5)nc(C(F)(F)F)cc34)c2)COC1 [Example C66, 7-{[(3R,4R)-3,4-difluoropyrrolidin-1-yl]methyl}-3-(3-{3-[(4-methyl-4H-1,2,4-triazol-3-yl)methyl]oxetan-3-yl}phenyl)-5-(trifluoromethyl)-1H-pyrazolo[3,4-c]pyridine]
Ki (CBL-B (residues 36-427)): 20 nM | Kd (WT CBL-B (36-427)): 9.6 nM | Kd (C-CBL (46-435)): 97 nM | Ki (C-CBL (residues 46-435)): 112 nM

Cn1cnnc1CC1(c2cccc(-c3n[nH]c4c(CN5C[C@@H](F)[C@@H](F)C5)nc(C(F)(F)F)cc34)c2)COC1 [Example C67, 7-{[(3R,4S)-3,4-difluoropyrrolidin-1-yl]methyl}-3-(3-{3-[(4-methyl-4H-1,2,4-triazol-3-yl)methyl]oxetan-3-yl}phenyl)-5-(trifluoromethyl)-1H-pyrazolo[3,4-c]pyridine]
Ki (CBL-B (residues 36-427)): 12.6 nM | Kd (WT CBL-B (36-427)): 4.4 nM | Kd (C-CBL (46-435)): 51 nM | Ki (C-CBL (residues 46-435)): 72.1 nM

Cn1cnnc1CC1(c2cccc(-c3n[nH]c4c(CN5C[C@H](F)[C@@H](F)C5)nc(C(F)(F)F)cc34)c2)COC1 [Example C68, 7-{[(3S,4S)-3,4-difluoropyrrolidin-1-yl]methyl}-3-(3-{3-[(4-methyl-4H-1,2,4-triazol-3-yl)methyl]oxetan-3-yl}phenyl)-5-(trifluoromethyl)-1H-pyrazolo[3,4-c]pyridine]
Ki (CBL-B (residues 36-427)): 24.8 nM | Kd (WT CBL-B (36-427)): 10.7 nM | Kd (C-CBL (46-435)): 122 nM | Ki (C-CBL (residues 46-435)): 124 nM

Cn1cnnc1CC1(c2cccc(-c3n[nH]c4c(CN5CC(F)(F)C5)nc(C(F)(F)F)cc34)c2)COC1 [Example C69, 7-[(3,3-difluoroazetidin-1-yl)methyl]-3-(3-{3-[(4-methyl-4H-1,2,4-triazol-3-yl)methyl]oxetan-3-yl}phenyl)-5-(trifluoromethyl)-1H-pyrazolo[3,4-c]pyridine]
Ki (CBL-B (residues 36-427)): 34.5 nM | Kd (WT CBL-B (36-427)): 30.2 nM | Kd (C-CBL (46-435)): 208 nM | Ki (C-CBL (residues 46-435)): 185 nM

Cn1cnnc1CC1(c2cccc(-c3n[nH]c4c(CN5CCC(F)(F)C5)nc(C(F)(F)F)cc34)c2)COC1 [Example C70, 7-[(3,3-difluoropyrrolidin-1-yl)methyl]-3-(3-{3-[(4-methyl-4H-1,2,4-triazol-3-yl)methyl]oxetan-3-yl}phenyl)-5-(trifluoromethyl)-1H-pyrazolo[3,4-c]pyridine]
Ki (CBL-B (residues 36-427)): 20.6 nM | Kd (WT CBL-B (36-427)): 6 nM | Kd (C-CBL (46-435)): 80 nM | Ki (C-CBL (residues 46-435)): 113 nM

Cn1cnnc1CC1(c2cccc(-c3n[nH]c4c(CN5CC[C@@H](F)C5)nc(C(F)(F)F)cc34)c2)COC1 [Example C71, 7-{[(3R)-3-fluoropyrrolidin-1-yl]methyl}-3-(3-{3-[(4-methyl-4H-1,2,4-triazol-3-yl)methyl]oxetan-3-yl}phenyl)-5-(trifluoromethyl)-1H-pyrazolo[3,4-c]pyridine]
Ki (CBL-B (residues 36-427)): 25.5 nM | Kd (WT CBL-B (36-427)): 10.8 nM | Kd (C-CBL (46-435)): 108 nM | Ki (C-CBL (residues 46-435)): 124 nM

C[C@@H]1CN(Cc2nc(C(F)(F)F)cc3c(-c4cccc(C5(Cc6nncn6C)COC5)c4)n[nH]c23)CCO1 [Example C72, 7-{[(2R)-2-methylmorpholin-4-yl]methyl}-3-(3-{3-[(4-methyl-4H-1,2,4-triazol-3-yl)methyl]oxetan-3-yl}phenyl)-5-(trifluoromethyl)-1H-pyrazolo[3,4-c]pyridine]
Ki (CBL-B (residues 36-427)): 18.6 nM | Kd (WT CBL-B (36-427)): 2.3 nM | Kd (C-CBL (46-435)): 63.1 nM | Ki (C-CBL (residues 46-435)): 83.3 nM

Cn1cnnc1CC1(c2cccc(-c3n[nH]c4c(CN5CC[C@H](F)C5)nc(C(F)(F)F)cc34)c2)COC1 [Example C73, 7-{[(3S)-3-fluoropyrrolidin-1-yl]methyl}-3-(3-{3-[(4-methyl-4H-1,2,4-triazol-3-yl)methyl]oxetan-3-yl}phenyl)-5-(trifluoromethyl)-1H-pyrazolo[3,4-c]pyridine]
Ki (CBL-B (residues 36-427)): 19.3 nM | Kd (WT CBL-B (36-427)): 9 nM | Kd (C-CBL (46-435)): 94 nM | Ki (C-CBL (residues 46-435)): 111 nM

Cn1cnnc1[C@@H](c1cccc(-c2n[nH]c3c(CN4C[C@@H](O)[C@H](O)C4)nc(C(F)(F)F)cc23)c1)C1CCC1 [Example C74, (3R,4R)-1-{[3-{3-[(R)-cyclobutyl(4-methyl-4H-1,2,4-triazol-3-yl)methyl]phenyl}-5-(trifluoromethyl)-1H-pyrazolo[3,4-c]pyridin-7-yl]methyl}pyrrolidine-3,4-diol]
Ki (CBL-B (residues 36-427)): 7.5 nM | Kd (WT CBL-B (36-427)): 3.2 nM | Kd (C-CBL (46-435)): 103 nM | Ki (C-CBL (residues 46-435)): 83.1 nM
